Measurements from ChEMBL document CHEMBL5346945, “Discovery and Optimization of the First ATP Competitive Type-III c-MET Inhibitor” (J Med Chem, 2023).

What was measured:
[1] = Metabolic stability in Han Wistar rat hepatocytes assessed as intrinsic clearance measured per million cells at 1 uM measured at 0.5 to 2 hrs by LC-MS/MS analysis; type: ADME, cell-based, Hepatocyte; details: time 0.5-2 hrs, read-out: CLH
[2] = Lipophilicity, logD of compound in octanol and water at pH 7.4 measured by shake-flask method; type: physicochemical
[3] = Metabolic stability in human liver microsomes assessed as intrinsic clearance at 1 uM preincubated with NADPH for 8 mins followed by compound addition measured at 0.5 to 30 mins by LC-MS/MS analysis; type: ADME, Microsome; details: time 0.5-30 min, read-out: CLH
[4] = biological target: T1, Hepatocyte growth factor receptor (Homo sapiens, UniProt P08581); assay: Inhibition of wild type c-MET (unknown origin) using ATP and poly(L-glutamic acid-L-tyrosine) as substrate incubated for 60 mins measured by ADP-Glo kinase assay
T1 sequence (P08581 whole entry): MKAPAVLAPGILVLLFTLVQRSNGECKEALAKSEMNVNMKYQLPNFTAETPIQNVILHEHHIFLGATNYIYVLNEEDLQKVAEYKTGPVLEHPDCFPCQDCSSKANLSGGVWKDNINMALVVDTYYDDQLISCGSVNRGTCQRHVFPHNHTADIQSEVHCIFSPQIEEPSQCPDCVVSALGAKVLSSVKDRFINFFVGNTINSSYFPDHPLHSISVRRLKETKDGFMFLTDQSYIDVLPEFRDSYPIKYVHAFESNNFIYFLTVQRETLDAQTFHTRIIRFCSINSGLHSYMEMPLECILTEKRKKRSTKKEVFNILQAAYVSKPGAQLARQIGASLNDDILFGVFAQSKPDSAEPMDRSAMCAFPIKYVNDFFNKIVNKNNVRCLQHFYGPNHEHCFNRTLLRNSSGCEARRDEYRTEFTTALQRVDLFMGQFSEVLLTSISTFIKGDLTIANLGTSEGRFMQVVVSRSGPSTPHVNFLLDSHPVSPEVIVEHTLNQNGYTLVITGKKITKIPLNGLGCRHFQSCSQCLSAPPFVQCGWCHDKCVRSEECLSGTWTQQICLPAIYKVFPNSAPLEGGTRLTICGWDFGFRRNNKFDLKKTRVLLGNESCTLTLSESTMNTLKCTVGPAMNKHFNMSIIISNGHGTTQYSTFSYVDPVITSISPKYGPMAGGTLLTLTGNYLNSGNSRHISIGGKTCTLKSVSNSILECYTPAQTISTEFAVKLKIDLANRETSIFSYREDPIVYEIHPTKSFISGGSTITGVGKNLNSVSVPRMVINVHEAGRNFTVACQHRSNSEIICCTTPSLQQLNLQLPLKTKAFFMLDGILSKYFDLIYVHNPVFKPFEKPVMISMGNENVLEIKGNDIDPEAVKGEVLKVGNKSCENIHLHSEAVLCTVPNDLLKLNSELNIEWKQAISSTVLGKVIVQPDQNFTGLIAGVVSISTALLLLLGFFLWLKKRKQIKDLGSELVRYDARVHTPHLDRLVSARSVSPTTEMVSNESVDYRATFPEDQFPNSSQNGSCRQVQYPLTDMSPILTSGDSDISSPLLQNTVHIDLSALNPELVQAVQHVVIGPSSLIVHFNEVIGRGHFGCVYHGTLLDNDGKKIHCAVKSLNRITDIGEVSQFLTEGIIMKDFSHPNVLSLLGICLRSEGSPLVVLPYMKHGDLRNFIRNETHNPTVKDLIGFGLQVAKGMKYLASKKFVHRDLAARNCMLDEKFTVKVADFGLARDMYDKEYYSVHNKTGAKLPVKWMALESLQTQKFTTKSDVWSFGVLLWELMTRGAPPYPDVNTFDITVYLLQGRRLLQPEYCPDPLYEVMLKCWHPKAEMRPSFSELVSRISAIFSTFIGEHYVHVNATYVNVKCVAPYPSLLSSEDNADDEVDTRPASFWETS

[5] = biological target: T1, Hepatocyte growth factor receptor; assay: Binding affinity to wild type c-MET (unknown origin) assessed as dissociation constant measured for 120 sec by SPR analysis
[6] = Permeability across basolateral to apical side in MDCK cells at 10 uM by LC-MS/MS analysis; type: ADME, cell-based, Canis lupus familiaris; details: dog, read-out: permeability
[7] = Metabolic stability in human hepatocytes assessed as intrinsic clearance measured per million cells at 1 uM measured at 0.5 to 2 hrs by LC-MS/MS analysis; type: ADME, cell-based, Hepatocyte; details: time 0.5-2 hrs, read-out: CLH
[8] = Oral bioavailability in Han Wistar rat plasma at 1 mg/kg, measured for 1 to 24 hrs by LC-MS/MS analysis; type: ADME, organism-based; details: in vivo, time 1-24 hrs
[9] = Volume of distribution at steady state in Han Wistar rat plasma at 1 mg/kg, po or 0.5 mg/kg, iv measured for 1 to 24 hrs by LC-MS/MS analysis; type: ADME, organism-based; details: in vivo, time 1-24 hrs
[10] = Ratio of drug concentration in brain to plasma of Han Wistar rat plasma at 2 micromol/kg per hour measured after 4 hrs by LC-MS/MS analysis; type: ADME; details: dose 2 µmol/kg
[11] = biological target: T1, Hepatocyte growth factor receptor; assay: Inhibition of wild type c-MET in human NCI-H1993 cells incubated for 4 hrs measured by HTRF assay; type: cell-based

SMILES | hepatocyte CLint at 1 µM [1] | logD [2] | microsomal CLint at 1 µM [3] | IC50 [4] | Kd [5] | Papp B→A at 10 µM [6] | hepatocyte CLint at 1 µM [7] | F [8] | Vdss [9] | K(p,uu,brain) [10] | EC50 [11]
CC(c1ccc(F)cc1)n1cc(-c2cc(F)cc3cn[nH]c23)c(=O)[nH]c1=O (configuration not stated) | 11.9 µL/min/1e6 cells | 2.7 | 5.61 µL/min/mg | 530 nM |  |  |  |  |  |  | 
C#Cc1n[nH]c2c(-c3cn(C(C)c4ccccc4)c(=O)[nH]c3=O)cccc12 (configuration not stated) | 9.1 µL/min/1e6 cells | 3.2 | 12.8 µL/min/mg | 40 nM |  |  |  |  |  |  | 
Cc1n[nH]c2c(-c3cn(C(C)c4ccccc4)c(=O)[nH]c3=O)cccc12 (configuration not stated) | 37 µL/min/1e6 cells | 2.7 | 17.8 µL/min/mg | 430 nM | 180 nM |  |  |  |  |  | 
CC(c1ccccc1Cl)n1cc(-c2cc(F)cc(F)c2)c(=O)[nH]c1=O (configuration not stated) | 227 µL/min/1e6 cells | 3.6 | 38.3 µL/min/mg |  | 36000 nM |  |  |  |  |  | 
CC(c1ccccc1)n1cc(-c2cccc3c(F)n[nH]c23)c(=O)[nH]c1=O (configuration not stated) | 49.4 µL/min/1e6 cells | 3 | 32.4 µL/min/mg | 810 nM | 240 nM |  |  |  |  |  | 
CC(c1ccccc1)n1cc(-c2cc(F)cc(F)c2)c(=O)[nH]c1=O (configuration not stated) | 123 µL/min/1e6 cells | 3.2 | 17.8 µL/min/mg |  | 2500 nM |  |  |  |  |  | 
C[C@@H](c1ccc(F)cc1)n1cc(-c2cc(F)cc3c(C#N)n[nH]c23)c(=O)[nH]c1=O |  | 3.3 |  | 75 nM |  | 25.6 ×10⁻⁶ cm/s | 2.48 µL/min/1e6 cells | 96% | 1.5 L/kg | 0.014 | 
CC(c1ccccc1)n1cc(-c2ccccn2)c(=O)[nH]c1=O (configuration not stated) | 300 µL/min/1e6 cells | 2.2 | 12.6 µL/min/mg |  | 4500 nM |  |  |  |  |  | 
CC(c1ccccc1)n1cc(-c2cc(F)cc3cn[nH]c23)c(=O)[nH]c1=O (configuration not stated) | 14 µL/min/1e6 cells | 2.5 | 4.04 µL/min/mg | 400 nM | 120 nM |  |  |  |  |  | 
C#Cc1n[nH]c2c(-c3cn(C(C)c4ccccc4)c(=O)[nH]c3=O)cc(F)cc12 (configuration not stated) |  | 3.3 |  | 31 nM |  | 14.2 ×10⁻⁶ cm/s | 4.27 µL/min/1e6 cells | 100% | 4.6 L/kg | 0.1 | 1950 nM
C[C@@H](c1ccc(F)cc1)n1cc(-c2cc(F)cc3cn[nH]c23)c(=O)[nH]c1=O |  | 2.8 |  | 150 nM |  | 22.4 ×10⁻⁶ cm/s | 1.81 µL/min/1e6 cells | 57% | 4.3 L/kg | 0.11 | 
CC(c1ccccc1)n1cc(-c2ccccc2)c(=O)[nH]c1=O (configuration not stated) | 185 µL/min/1e6 cells | 2.7 | 50.1 µL/min/mg |  | 3900 nM |  |  |  |  |  | 
CC(c1ccc(F)cc1)n1cc(-c2cc(F)cc(F)c2)c(=O)[nH]c1=O (configuration not stated) | 26.8 µL/min/1e6 cells |  | 17.4 µL/min/mg |  | 1200 nM |  |  |  |  |  | 
CC(c1cccc(-c2cc[nH]n2)c1)n1cc(-c2cc(F)cc(F)c2)c(=O)[nH]c1=O (configuration not stated) | 24.7 µL/min/1e6 cells | 3.5 | 5.04 µL/min/mg |  | 2600 nM |  |  |  |  |  | 
C[C@@H](c1ccccc1)n1cc(-c2cc(F)cc(F)c2)c(=O)[nH]c1=O | 133 µL/min/1e6 cells | 3.1 | 7.68 µL/min/mg |  | 920 nM |  |  |  |  |  | 
CC(c1cccc(Cl)c1)n1cc(-c2cc(F)cc(F)c2)c(=O)[nH]c1=O (configuration not stated) | 177 µL/min/1e6 cells | 3.8 | 27.4 µL/min/mg |  | 1000 nM |  |  |  |  |  | 
CC(c1cccc(-c2c[nH]cn2)c1)n1cc(-c2cccc3cn[nH]c23)c(=O)[nH]c1=O (configuration not stated) | 5.84 µL/min/1e6 cells | 2.3 | 8.92 µL/min/mg |  | 460 nM |  |  |  |  |  | 
CC(c1cccc(-c2c[nH]cn2)c1)n1cc(-c2cc(F)cc(F)c2)c(=O)[nH]c1=O (configuration not stated) | 6.03 µL/min/1e6 cells | 3.2 | 16.2 µL/min/mg |  | 520 nM |  |  |  |  |  | 
CC(c1ccccc1)n1cc(-c2cccc3c(C#N)n[nH]c23)c(=O)[nH]c1=O (configuration not stated) | 41.4 µL/min/1e6 cells | 2.9 | 32.7 µL/min/mg | 500 nM | 200 nM |  |  |  |  |  | 
CC(c1ccccc1)n1cc(-c2cc(F)cc3c(C#N)n[nH]c23)c(=O)[nH]c1=O (configuration not stated) | 51.4 µL/min/1e6 cells | 3.1 | 11.4 µL/min/mg | 130 nM | 87 nM |  |  |  |  |  | 
CC(c1cccc(-c2cn[nH]c2)c1)n1cc(-c2cc(F)cc(F)c2)c(=O)[nH]c1=O (configuration not stated) | 22.3 µL/min/1e6 cells | 3.4 | < 3 µL/min/mg |  | 800 nM |  |  |  |  |  | 
CC(c1ccccc1)n1cc(-c2c(F)ccc3cn[nH]c23)c(=O)[nH]c1=O (configuration not stated) | 28.3 µL/min/1e6 cells | 2.5 | 7.35 µL/min/mg | 2200 nM | 440 nM |  |  |  |  |  | 
CC(c1ccccc1)n1cc(-c2ncccn2)c(=O)[nH]c1=O (configuration not stated) | 4.67 µL/min/1e6 cells | 0.85 | < 3 µL/min/mg |  | 2700 nM |  |  |  |  |  | 
O=c1[nH]c(=O)n(Cc2ccccc2)cc1-c1cc(F)cc(F)c1 | 76.7 µL/min/1e6 cells | 3 | 20.6 µL/min/mg |  | > 100000 nM |  |  |  |  |  | 
CC(c1ccccc1)n1cc(-c2ccc3[nH]ccc3c2)c(=O)[nH]c1=O (configuration not stated) | 217 µL/min/1e6 cells | 2.9 | 25.4 µL/min/mg |  | 520 nM |  |  |  |  |  | 
CC(c1ccc(F)cc1)n1cc(-c2cc(F)cc3c(C#N)n[nH]c23)c(=O)[nH]c1=O (configuration not stated) | 4.4 µL/min/1e6 cells | 3.2 | < 3 µL/min/mg | 310 nM |  |  |  |  |  |  | 18700 nM
CC(c1ccccc1)n1cc(-c2cccc3cn[nH]c23)c(=O)[nH]c1=O (configuration not stated) | 46.1 µL/min/1e6 cells | 2.4 | 6.13 µL/min/mg | 1300 nM | 240 nM |  |  |  |  |  | 
CC(c1ccccn1)n1cc(-c2cc(F)cc3c(C#N)n[nH]c23)c(=O)[nH]c1=O (configuration not stated) | 3.08 µL/min/1e6 cells | 2.1 | < 3 µL/min/mg | 1200 nM |  |  |  |  |  |  | > 29800 nM
C#Cc1n[nH]c2c(-c3cn(C(C)c4ccccn4)c(=O)[nH]c3=O)cc(F)cc12 (configuration not stated) |  | 2.5 |  | 55 nM |  | 37.9 ×10⁻⁶ cm/s | 1.29 µL/min/1e6 cells | 91% | 1.6 L/kg | 0.022 | 
